Source: ChEMBL document CHEMBL1201862, “PubChem BioAssay data set” (2004)
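All cell lines were grown in 96-well plates and treated with compound for 48 hours. GI50 = concentration required for 50% inhibition of growth.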 Activity calls are given as the source filed them. Rule as the data show it: active = GI50 up to about 1.1 µM and inactive = higher.

What was measured:
Assay in all cases: NCI tumour cell line growth inhibition, 48 h
IGROV-1 = system: IGROV-1
U-251 = system: U-251
SF-268 = system: SF-268
OVCAR-3 = system: OVCAR-3
MOLT-4 = system: MOLT-4
A498 = system: A498
HT-29 = system: HT-29
OVCAR-8 = system: OVCAR-8
NCI-H460 = system: NCI-H460
KM12 = system: KM12
HL-60 = system: HL-60
SK-MEL-2 = system: SK-MEL-2
K562 = system: K562
CCRF-CEM = system: CCRF-CEM
UACC-257 = system: UACC-257
UO-31 = system: UO-31
CAKI-1 = system: CAKI-1
SNB-75 = system: SNB-75

Compound	GI50 (IGROV-1)	GI50 (U-251)	GI50 (SF-268)	GI50 (OVCAR-3)	GI50 (MOLT-4)	GI50 (A498)	GI50 (HT-29)	GI50 (OVCAR-8)	GI50 (NCI-H460)	GI50 (KM12)	GI50 (HL-60)	GI50 (SK-MEL-2)	GI50 (K562)	GI50 (CCRF-CEM)	GI50 (UACC-257)	GI50 (UO-31)	GI50 (CAKI-1)	GI50 (SNB-75)
COc1ccc(NCc2cc(OC)c(OC)c(OC)c2)cc1	0.631 µM (active)	0.439 µM (active)	1 µM (active)	0.34 µM (active)	0.451 µM (active)	0.543 µM (active)	0.176 µM (active)	0.851 µM (active)	0.359 µM (active)	0.13 µM (active)	0.115 µM (active)	0.245 µM (active)	–	–	–	–	–	–
O=S(=O)(c1cccc(N=C=S)c1)c1cccc(N=C=S)c1	18.7 µM (inactive)	18.9 µM (inactive)	18.2 µM (inactive)	11.6 µM (inactive)	4.85 µM (inactive)	–	–	> 10 µM (inactive)	> 10 µM (inactive)	27.5 µM (inactive)	21.7 µM (inactive)	18.5 µM (inactive)	16.3 µM (inactive)	5.51 µM (inactive)	20.4 µM (inactive)	28.7 µM (inactive)	–	–
COc1ccc2c3c([nH]c2c1[N+](=O)[O-])C(C)N(C(=O)/C=C/c1ccccc1)CC3 (stereo unspecified)	> 100 µM (inactive)	7.01 µM (inactive)	1.7 µM (inactive)	4.8 µM (inactive)	2.64 µM (inactive)	2.62 µM (inactive)	3.89 µM (inactive)	3.91 µM (inactive)	2.96 µM (inactive)	4.24 µM (inactive)	2.64 µM (inactive)	10.7 µM (inactive)	2.88 µM (inactive)	3.29 µM (inactive)	3.83 µM (inactive)	28 µM (inactive)	3.66 µM (inactive)	–
CC1(CO)OC(n2cc(C(=O)NC(=O)OCc3ccccc3)c(=O)[nH]c2=O)CC1O (stereo unspecified)	> 100 µM (inactive)	> 100 µM (inactive)	> 100 µM (inactive)	> 100 µM (inactive)	> 100 µM (inactive)	> 100 µM (inactive)	> 100 µM (inactive)	> 100 µM (inactive)	> 100 µM (inactive)	> 100 µM (inactive)	> 100 µM (inactive)	–	> 100 µM (inactive)	> 100 µM (inactive)	> 100 µM (inactive)	> 100 µM (inactive)	> 100 µM (inactive)	84.5 µM (inactive)
CC(C)(C)C1CC[C@H]2c3c([nH]c4ccccc34)[C@H]3C(=O)N(c4ccc(F)cc4)C(=O)[C@H]3[C@H]2C1 (stereo partly specified)	17 µM (inactive)	8.75 µM (inactive)	13.6 µM (inactive)	16.7 µM (inactive)	13.2 µM (inactive)	29.9 µM (inactive)	–	12.1 µM (inactive)	13.6 µM (inactive)	14.1 µM (inactive)	–	15.8 µM (inactive)	20.7 µM (inactive)	16.7 µM (inactive)	22.6 µM (inactive)	15.8 µM (inactive)	17.9 µM (inactive)	10.5 µM (inactive)
O=c1oc2ccccc2c(O)c1C(C/C(CCN1CCCC1)=N\Nc1ccccc1)c1ccccc1 (stereo unspecified)	> 100 µM (inactive)	78.2 µM (inactive)	> 100 µM (inactive)	53.5 µM (inactive)	–	> 100 µM (inactive)	62.8 µM (inactive)	> 100 µM (inactive)	70.8 µM (inactive)	60.5 µM (inactive)	24.2 µM (inactive)	51.3 µM (inactive)	46.2 µM (inactive)	27.9 µM (inactive)	77.8 µM (inactive)	53.5 µM (inactive)	> 100 µM (inactive)	> 100 µM (inactive)
Nc1nc(CCl)nc(Nc2ccccc2)n1	16.6 µM (inactive)	3.99 µM (inactive)	19.2 µM (inactive)	17.2 µM (inactive)	15.8 µM (inactive)	–	12.5 µM (inactive)	30.2 µM (inactive)	17.3 µM (inactive)	15.1 µM (inactive)	3.27 µM (inactive)	18.8 µM (inactive)	> 10 µM (inactive)	2.14 µM (inactive)	15.9 µM (inactive)	28.5 µM (inactive)	12.4 µM (inactive)	6.24 µM (inactive)
O=[N+]([O-])c1ccc(C2=NN(c3ccccc3)C[N+](c3ccc(Br)cc3)=N2)cc1	> 100 µM (inactive)	71.3 µM (inactive)	60.5 µM (inactive)	–	44.3 µM (inactive)	> 100 µM (inactive)	> 100 µM (inactive)	> 100 µM (inactive)	> 100 µM (inactive)	> 100 µM (inactive)	–	> 100 µM (inactive)	70.3 µM (inactive)	–	> 100 µM (inactive)	> 100 µM (inactive)	> 100 µM (inactive)	> 100 µM (inactive)
CN/C=C(/c1ccc(OC)cc1)C(O)c1ccc(OC)c(OC)c1 (stereo unspecified)	> 100 µM (inactive)	> 100 µM (inactive)	–	> 100 µM (inactive)	> 100 µM (inactive)	> 100 µM (inactive)	> 100 µM (inactive)	> 100 µM (inactive)	> 100 µM (inactive)	> 100 µM (inactive)	> 100 µM (inactive)	> 100 µM (inactive)	> 100 µM (inactive)	> 100 µM (inactive)	> 100 µM (inactive)	> 100 µM (inactive)	–	69.8 µM (inactive)
